# Laboratory results published in patent US10449223B2, “Use of dehydroeburicoic acid from Antrodia camphorata in the treatment or prevention of diabetes and hyperlipidemia” (priority 2016, dated 2019).
# Experiments:
# [1] = tested on: STZ-induced diabetic mice; assay: Tissue weight, body weight and food intake in STZ-induced diabetic mice; type: in vivo, C57BL/6J mice; conditions: 28 days
# [2] = tested on: SREBP2; assay: Semiquantitative RT-PCR, liver tissue: SREBP2 mRNA; type: in vivo, C57BL/6J mice; conditions: STZ-induced diabetic mice; TT oral (10, 20, 40 mg/kg/day groups, dose not given)
# Procedure: (§1) Total RNA from liver tissue was isolated with a Trizol Reagent (Molecular Research Center, Inc., Cincinnati, Ohio) according to the manufacturer's directions. The integrity of the extracted total RNA was examined by 2% agarose gel electrophoresis, and the RNA concentration was determined by the ultraviolet (UV) light absorbency at 260 nm and 280 nm (Spectrophotometer U-2800A, Hitachi). Total RNA (1 μg) was reverse transcribed to cDNA in a reaction mixture containing buffer, and 5 μL Moloney murine leukemia virus reverse transcriptase (Epicentre, Madison, Wis., USA). The polymerase chain reaction (PCR) was performed in a final 25 μL containing 1 U Blend Taq-Plus (TOYOBO, Japan), 1 μL of the RT first-strand cDNA product, 10 μM of each forward (F) and reverse (R) primer, 75 mM Tris-HCl (pH 8.3) containing 1 mg/L Tween 20, 2.5 mM dNTP, and 2 mM MgCl2. The products were run on 2% agarose gels and stained with ethidium bromide.
# [3] = tested on: AMPK; assay: Western blotting: phospho-AMPK (Thr172)/total AMPK in skeletal muscle and liver of mice; conditions: STZ-induced diabetic mice, 28 days
# Procedure: (§6) The study protocol was performed as previously described.^28 Diabetes was induced by intraperitoneal injection of streptozotocin (Sigma Chemical, St. Louis, Mo., USA) for 5 consecutive days. The dosage of STZ was 55 mg/kg (dissolved in 0.05 M cold sodium citrate buffer, pH 4.5). The normal control mice received only citrate buffer of the same volume.
# (§7) During the experiment, all mice were fasted overnight, and blood was collected from the retro-orbital sinus. After dosing for 4 weeks, food was removed from the mice at night, and on the next day, the mice after 12 h of fasting were sacrificed. All of the individual tissues were collected and weighed, and parts of tissues were instantly frozen at −80° C. for later target gene analysis.
# (§8) PPARα, PPARγ, and FAS proteins were performed by the liver and white adipose tissue of mice. Skeletal muscle from mice was subjected to GLUT4 expression level analysis, and the total membrane fractions were collected with buffer and determined using a described procedure. The protein contents of GLUT4, phospho-AMPK, and total AMPK were detected by Western blotting and determined as described.
# [4] = tested on: PPARα; assay: Semiquantitative RT-PCR, liver tissue: PPARα mRNA; type: in vivo, C57BL/6J mice; conditions: STZ-induced diabetic mice, 28 days
# Procedure: as §1
# [5] = tested on: CPT1a; assay: Semiquantitative RT-PCR, liver tissue: CPT1a mRNA; type: in vivo, C57BL/6J mice; conditions: STZ-induced diabetic mice; TT oral (10, 20, 40 mg/kg/day groups, dose not given)
# Procedure: as §1
# [6] = tested on: GLUT4; assay: Western blotting: membrane GLUT4 in skeletal muscle of mice; conditions: STZ-induced diabetic mice, 28 days
# Procedure: as §6, §7, §8
# [7] = tested on: GLUT4; assay: GLUT4 protein expression in C2C12 myotube cells (Western blot); type: cell-based; conditions: 30 min
# Procedure: (§2) C2C12 skeletal myoblasts (ATCC, CRL-1772) were maintained in growth media consisting of Dulbecco's modified Eagle's medium (DMEM) (Gibco BRL) supplemented with 10% fetal bovine serum (FBS) (Hyclone) and 100 U/mL penicillin/100 μg/mL streptomycin (Gibco BRL) and split 1:4 using 0.05% trypsin when 80% confluent. Myoblasts were diluted and placed in a 9 cm dish. Cells were cultured to achieve 80-90% confluency, and growth medium was changed as 2% FBS/DMEM every 24 h for 5-7 days.
# (§3) Determination of GLUT4 and phospho-Akt (Ser^473)/Total Akt Proteins in Vitro: Differentiated C2C12 cells were serum starved in DMEM/BSA (2 h at 37° C.) prior to incubation either with test compounds (TT at 1, 5, 10, and 25 μg/mL) or with vehicle (DMSO containing saline, final concentration of DMSO=0.2%) for 30 min or with 100 nM insulin for 25 min.
# (§4) Following treatment, cells were washed three times with ice-cold PBS and separated into two portions. A portion of the cells was subsequently lysed in RIPA buffer (50 mM Tris-HCl, pH 8, 150 mM NaCl, 1% NP-40, 0.5% sodium deoxycholate, 0.1% SDS) supplemented with complete protease inhibitor cocktail (Roche) and phosphatase inhibitors and then centrifuged at 20000 g for […].
# Supernatant protein was collected and stored at −20° C. Another portion of cells was homogenized with buffer (250 mmol/L sucrose, 50 mmol/L Tris, and 0.2 mmol/L edetic acid, pH 7.4) at 4° C., as previously described. The homogenates were centrifuged at 9000 g for 10 min (4° C.). The pellet was suspended with 0.5 mL of homogenization buffer and then centrifuged, repeated three times. The three supernatants were collected, mixed, and centrifuged at 190000 g for 60 min (4° C.). The pellet was resuspended with 0.2 mL of homogenization buffer, stored at −20° C., and performed within membrane.
# (§5) Protein concentration was determined via BCA assay (Pierce). Equal amounts of protein were then diluted four times in SDS sample buffer and subjected to SDS-PAGE and were detected by Western blotting with antibodies specific for Akt, phosph-Akt Ser^473, and GLUT4. The density blotting was analyzed using Alpha Easy FCsoftware (Alpha Innotech Corp., Randburg, South Africa).
# [8] = tested on: PPARγ; assay: Western blotting: PPARγ in liver and adipose tissue of mice; conditions: STZ-induced diabetic mice, 28 days
# Procedure: as §6, §7, §8
# [9] = tested on: STZ-induced diabetic mice; assay: Histology of epididymal WAT and liver tissue in STZ-induced diabetic mice; type: in vivo, C57BL/6J mice; conditions: 28 days
# Description: Parts of EWAT and liver tissue specimens were investigated as previously described.^31,32 Microscopic images were taken using a microscope (Olympus BX51, BX51, Olympus, Tokyo, Japan).
# [10] = tested on: PPARα; assay: Western blotting: PPARα in liver of mice; conditions: STZ-induced diabetic mice, 28 days
# Procedure: as §6, §7, §8
# [11] = tested on: SREBP1c; assay: Semiquantitative RT-PCR, liver tissue: SREBP1c mRNA; type: in vivo, C57BL/6J mice; conditions: STZ-induced diabetic mice, 28 days, relative to CON group (so in the source)
# Procedure: as §1
# [12] = tested on: G6 Pase; assay: Semiquantitative RT-PCR, liver tissue: G6 Pase mRNA; type: in vivo, C57BL/6J mice; conditions: STZ-induced diabetic mice, 28 days, relative to CON group (so in the source)
# Procedure: as §1
# [13] = tested on: PEPCK; assay: Semiquantitative RT-PCR, liver tissue: PEPCK mRNA; type: in vivo, C57BL/6J mice; conditions: STZ-induced diabetic mice, 28 days, relative to CON group (so in the source)
# Procedure: as §1
# [14] = tested on: Akt; assay: phospho-Akt (Ser473)/total Akt in C2C12 myotube cells (Western blot); type: cell-based; conditions: 30 min
# Procedure: as §2, §3, §4
# Supernatant protein was collected and stored at −20° C. Another portion of cells was homogenized with buffer (250 mmol/L sucrose, 50 mmol/L Tris, and 0.2 mmol/L edetic acid, pH 7.4) at 4° C., as previously described. The homogenates were centrifuged at 9000 g for 10 min (4° C.). The pellet was suspended with 0.5 mL of homogenization buffer and then centrifuged, repeated three times. The three supernatants were collected, mixed, and centrifuged at 190000 g for 60 min (4° C.). […]
# as §5
# [15] = tested on: FAS; assay: Western blotting: FAS in liver and adipose tissue of mice; conditions: STZ-induced diabetic mice, 28 days
# Procedure: as §6, §7, §8
# [16] = tested on: DGAT2; assay: Semiquantitative RT-PCR, liver tissue: DGAT2 mRNA; type: in vivo, C57BL/6J mice; conditions: STZ-induced diabetic mice, 28 days, relative to CON group (so in the source)
# Procedure: as §1
compound,measurement,setting,value
"C=C(CC[C@@H](C(=O)O)[C@H]1CC[C@@]2(C)C3=CC[C@H]4C(C)(C)[C@@H](O)CC[C@]4(C)C3=CC[C@]12C)C(C)C [TT, dehydroeburicoic acid]",Tissue weight: BAT,[1]; TT 10 mg/kg/day oral,0.296 ± 0.012 wt %
same,Tissue weight: EWAT,[1]; TT 10 mg/kg/day oral,0.778 ± 0.063 wt %
same,Tissue weight: MWAT,[1]; TT 10 mg/kg/day oral,0.562 ± 0.114 wt %
same,Tissue weight: RWAT,[1]; TT 10 mg/kg/day oral,0.122 ± 0.029 wt %
same,Tissue weight: Visceral fat,[1]; TT 10 mg/kg/day oral,0.900 ± 0.082 wt %
same,Tissue weight: BAT,[1]; TT 20 mg/kg/day oral,0.323 ± 0.026 wt %
same,Tissue weight: EWAT,[1]; TT 20 mg/kg/day oral,0.783 ± 0.087 wt %
same,Tissue weight: MWAT,[1]; TT 20 mg/kg/day oral,0.709 ± 0.111 wt %
same,Tissue weight: RWAT,[1]; TT 20 mg/kg/day oral,0.161 ± 0.031 wt %
same,Tissue weight: Visceral fat,[1]; TT 20 mg/kg/day oral,0.944 ± 0.115 wt %
same,Tissue weight: EWAT,[1]; TT 40 mg/kg/day oral,0.715 ± 0.068 wt %
same,Tissue weight: MWAT,[1]; TT 40 mg/kg/day oral,0.720 ± 0.114 wt %
same,Tissue weight: RWAT,[1]; TT 40 mg/kg/day oral,0.119 ± 0.014 wt %
same,Tissue weight: Visceral fat,[1]; TT 40 mg/kg/day oral,0.834 ± 0.082 wt %
same,SREBP2 mRNA levels in liver,[2],decreased
same,expression levels of phospho-AMPK/total AMPK in skeletal muscle,[3]; TT 10 mg/kg/day oral,increased
same,muscular expression levels of phospho-AMPK/total AMPK compared with the STZ group (second sentence),[3]; TT 10 mg/kg/day oral,increased
same,expression levels of phospho-AMPK/total AMPK in skeletal muscle,[3]; TT 20 mg/kg/day oral,increased
same,muscular expression levels of phospho-AMPK/total AMPK compared with the STZ group (second sentence),[3]; TT 20 mg/kg/day oral,increased
same,expression levels of phospho-AMPK/total AMPK in skeletal muscle,[3]; TT 40 mg/kg/day oral,increased
same,muscular expression levels of phospho-AMPK/total AMPK compared with the STZ group (second sentence),[3]; TT 40 mg/kg/day oral,increased
same,mRNA level of PPARα in liver,[4]; TT 10 mg/kg/day oral,increased
same,mRNA level of PPARα in liver,[4]; TT 20 mg/kg/day oral,increased
same,mRNA level of PPARα in liver,[4]; TT 40 mg/kg/day oral,increased
same,CPT1a mRNA levels in liver,[5],enhanced
same,membrane expression levels of GLUT4 in skeletal muscle vs STZ group,[6]; TT 10 mg/kg/day oral,greater
same,membrane expression levels of GLUT4 in skeletal muscle vs STZ group,[6]; TT 20 mg/kg/day oral,greater
same,membrane expression levels of GLUT4 in skeletal muscle vs STZ group,[6]; TT 40 mg/kg/day oral,greater
same,protein expressions of GLUT4 vs CON group,[7]; TT 1 μg/mL,higher
same,protein expressions of GLUT4 vs CON group,[7]; TT 5 μg/mL,higher
same,protein expressions of GLUT4 vs CON group,[7]; TT 10 μg/mL,higher
same,protein expressions of GLUT4 vs CON group,[7]; TT 25 μg/mL,higher
same,expression levels of PPARγ in adipose tissue,[8]; TT 10 mg/kg/day oral,decreased
same,expression levels of PPARγ in the liver,[8]; TT 10 mg/kg/day oral,decreased
same,expression levels of PPARγ in adipose tissue,[8]; TT 20 mg/kg/day oral,decreased
same,expression levels of PPARγ in the liver,[8]; TT 20 mg/kg/day oral,decreased
same,expression levels of PPARγ in adipose tissue,[8]; TT 40 mg/kg/day oral,decreased
same,expression levels of PPARγ in the liver,[8]; TT 40 mg/kg/day oral,decreased
same,ballooning of hepatocyte (liver histology),[9]; TT 10 mg/kg/day oral,no ballooning phenomenon
same,average area of adipocytes in epididymal WAT,[9]; TT 20 mg/kg/day oral,5379.9±187.2 μm^2
same,ballooning of hepatocyte (liver histology),[9]; TT 20 mg/kg/day oral,no ballooning phenomenon
same,average area of adipocytes in epididymal WAT,[9]; TT 40 mg/kg/day oral,4910.5±104.9 μm^2
same,ballooning of hepatocyte (liver histology),[9]; TT 40 mg/kg/day oral,no ballooning phenomenon
same,expression levels of PPARα in the liver,[10]; TT 10 mg/kg/day oral,increased
same,expression levels of PPARα in the liver,[10]; TT 20 mg/kg/day oral,increased
same,expression levels of PPARα in the liver,[10]; TT 40 mg/kg/day oral,increased
same,mRNA levels of SREBP1c in liver,[11]; TT 10 mg/kg/day oral,decreased
same,mRNA levels of SREBP1c in liver,[11]; TT 20 mg/kg/day oral,decreased
same,mRNA levels of SREBP1c in liver,[11]; TT 40 mg/kg/day oral,decreased
same,mRNA levels of G6 Pase in liver,[12]; TT 10 mg/kg/day oral,decreased
same,mRNA levels of G6 Pase in liver,[12]; TT 20 mg/kg/day oral,decreased
same,mRNA levels of G6 Pase in liver,[12]; TT 40 mg/kg/day oral,decreased
same,mRNA levels of PEPCK in liver,[13]; TT 10 mg/kg/day oral,decreased
same,mRNA levels of PEPCK in liver,[13]; TT 20 mg/kg/day oral,decreased
same,mRNA levels of PEPCK in liver,[13]; TT 40 mg/kg/day oral,decreased
same,levels of phospho-Akt (Ser473)/total Akt proteins vs CON group,[14]; TT 10 μg/mL,higher
same,levels of phospho-Akt (Ser473)/total Akt proteins vs CON group,[14]; TT 25 μg/mL,higher
same,expression levels of FAS in adipose tissue,[15]; TT 10 mg/kg/day oral,decreased
same,expression levels of FAS in the liver,[15]; TT 10 mg/kg/day oral,decreased
same,expression levels of FAS in adipose tissue,[15]; TT 20 mg/kg/day oral,decreased
same,expression levels of FAS in the liver,[15]; TT 20 mg/kg/day oral,decreased
same,expression levels of FAS in adipose tissue,[15]; TT 40 mg/kg/day oral,decreased
same,expression levels of FAS in the liver,[15]; TT 40 mg/kg/day oral,decreased
same,mRNA levels of DGAT2 in liver,[16]; TT 10 mg/kg/day oral,decreased
same,mRNA levels of DGAT2 in liver,[16]; TT 20 mg/kg/day oral,decreased
same,mRNA levels of DGAT2 in liver,[16]; TT 40 mg/kg/day oral,decreased
